The source of these data is patent publication US12383585B2, “Methods of treatment of infections using bacteria” (Decoy Biosystems, Inc., priority 2018, dated 2025).

The subject of series [1] is AAV/HBV (human HBV genome, genotype D). Kind of series: AAV/HBV mouse model, HBV inhibition (Example 4). In kind it is in vivo, C57BL/6 mouse. As to conditions: for inhibition of HBeAg production (plasma): day 28 of dosing (Day 59 after infection). From the text: Adeno-associated virus/hepatitis B virus (AAV/HBV) is a recombinant AAV carrying replicable human HBV genome. Taking the advantage of the highly hepatotropic feature of genotype 8 AAV, the human HBV genome can be efficiently delivered to mouse liver cells. Infection of immune competent mice with AAV/HBV can result in long term HBV viremia, including release of human HBV virions, HBsAg and HBeAg into the blood, which mimics chronic HBV infection in patients. The AAV/HBV model can be used to evaluate the in vivo activity of various types of anti-HBV agents. Furthermore, this is an appropriate model for evaluation of immune modulators (see, for example Huang et al., Int. J. Onc. v39 pp1511-1519, 2011).
rAAV8-1.3HBV, genotype D, was purchased from Beijing FivePlus Molecular Medicine Institute (batch number A2018092406). The stock virus of 1×10^12 viral genome (v.g.)/mL was diluted to 5×10^11 v.g./mL with sterile phosphate-buffered saline (PBS) and 1×10^11 v.g. AAV/HBV in 200 μL was injected per 5 week old male C57BL/6 mouse 31 days prior to the initiation of dosing (day −31).
Blood samples (˜100 μL) were collected into K2-EDTA coated tubes via submandibular bleeding on days −17, −7 and −4. The samples were centrifuged at 7,000 g (4° C.) for 10 minutes for plasma collection. At least 40 μL plasma samples were prepared to determine the level of HBV-DNA by qPCR, and the levels of HBs Antigen (HBsAg) and HBe Antigen (HBeAg) by enzyme-linked immunosorbent assay (ELISA). Remaining plasma samples were stored at −80° C. for post-life assays. Based on the plasma levels of HBV DNA, HBsAg, HBeAg and body weights on days −17, −7 and −4, mice with qualified viral infection levels were selected and randomly divided into 7 groups with 5 mice in each group on day −1. All mice were evenly distributed in each group, to ensure no significant difference existed between each group in terms of HBV DNA, HBsAg, HBeAg level and body weight on day −4.
Animal groups were untreated, treated with Entecavir (ETV) at 0.005 mg/kg orally (p.o.) daily on days 0-34, Decoy at 2×10^8 killed bacteria per mouse administered tail vein i.v. on days 1, 2, 8, 9, 15, 16, 22, 23, 29 and 30, or ETV and Decoy. Plasma samples were obtained weekly an analyzed for HBV-DNA, HBsAg and HBeAg as described above.

The test system is the same in series [2]. As to the kind of experiment: AAV/HBV mouse model, long-term HBV inhibition with indomethacin (Example 5). In kind it is in vivo, C57BL/6 mouse. The note with it: for inhibition of HBV DNA production (plasma): all groups given indomethacin 10 μg/mL in drinking water, ETV 0.1 mg/kg. How it is done: This experiment was conducted in order to determine if a non-steroidal anti-inflammatory drug (NSAID) could enhance anti-viral activity by Decoy bacteria, if the anti-viral activity of Decoy is lost after cessation of treatment, and the potential toxic effects of ETV, Decoy and ETV+Decoy treatment. The experiment was carried out as described in Example 4, except that the AAV/HBV virus was injected at day −29, relative to start of dosing. HBV-DNA, HBsAg and HBeAg levels in plasma were determined on days −15, −8 and −1, relative to start of dosing on day 0, and the ETV dose was increased to 0.1 mg/kg. In addition, all groups represented in FIGS. 3, 4, 5 and 6 were administered indomethacin (NSAID) daily (10 μg/mL in drinking water). Dosing was carried out for 5 weeks as in Example 4, with plasma levels of HBV-DNA, HBsAg and HBeAg determined weekly, as well as every other week for 27 weeks after cessation of treatment. Inhibitory activity was determined by comparing treated groups at each time point to the control (indomethacin alone) group at the same time-point by unpaired, non-parametric Mann-Whitney statistical analysis.
Upon termination, the liver from each mouse was divided into multiple sections, snap frozen in liquid nitrogen immediately upon collection and stored at −80° C. Liver sections were used for HBV DNA detection and additional sections from each mouse liver were fixed in 10% neutral buffered formalin (NB F) for about 24 hours, then transferred for routine dehydration and paraffin embedding. Paraffin blocks were sectioned for hematoxylin-eosin (H&E) staining and pathology analysis, as well immunohistochemistry (IHC) analysis for HBsAg and HBcAg.

Series [3] has as its system human peripheral blood mononuclear cells (PBMCs). Kind of series: Induction of cytokine secretion from human PBMCs in vitro (Luminex). The note with it: full titration peak mean. It is filed as cell-based. The protocol: Supernatants were harvested by centrifuging plates at 1,000 rpm for 10 minutes and stored at −80° C. Luminex analysis of cytokine levels was carried out with Millipore Human Cytokine/Chemokine Magnetic Bead panels HCYTOMAG-60K and HSTCMAG-28SK. Levels of cytokines were interpolated off a standard curve using a […] non-linear regression analysis where the fit=(A+((B−A)/(1+(((B−E)/(E−A))*((x/C)^D))))). The interpolated data was normalized to vehicle control or unstimulated control and analyzed. PBMCs from fresh normal peripheral blood leukapheresis paks (ALLCells, Alameda, CA) were isolated using a Ficoll gradient (Ficoll-Paque PLUS, Cat #17-144-02, density 1.077+/−0.001 g/mL from GE Healthcare Bio-Sciences, Pittsburgh, PA). The bacteria vehicle was phosphate-buffered saline (PBS) with no calcium and 2 mM MgCl2.
The experiment was carried out as described for Table 1.

Take `C=C1[C@H](CO)[C@@H](O)C[C@@H]1n1cnc2c(=O)[nH]c(N)nc21` [ETV, Entecavir]: in series [1] (ETV 0.005 mg/kg p.o. daily), the “time to significant inhibition of HBV DNA production after initiation of dosing” value is recorded as at most 3 days. The “mice with plasma HBV DNA down to the lower limit of quantitation (120 copies/μL plasma)” value in series [1] (by day 28 of dosing (day 59 after infection)) is on record as 5/5. Besides, the “inhibition of HBeAg production (plasma)” value in series [1] (without indomethacin) is “No inhibition”; in series [1] (without indomethacin, listed as Entecavir) it was “not”. In addition, the “inhibition of HBV DNA production (plasma)” value was “significantly inhibited” in series [1] (vs no treatment group, ETV 0.005 mg/kg p.o. daily, Decoy 2×10^8 killed bacteria i.v. twice weekly) and “inhibited” in series [2]. In series [1] (without indomethacin), the “inhibition of HBsAg production (plasma)” value is “No inhibition”. The “inhibition of HBV DNA at termination (day 253)” value in series [2] (27 weeks after cessation of treatment, in the presence of indomethacin) was “Statistically significant inhibition of HBV DNA was lost”. The “inhibition of HBeAg expression in mouse livers” value in series [2] (27 weeks after the cessation of treatment, in the presence of indomethacin) was “not”. Also, the body weight loss entry in series [2] (ETV treatment 0.1 mg/kg, with indomethacin) is “No body weight loss”.

`COc1ccc2c(c1)c(CC(=O)O)c(C)n2C(=O)c1ccc(Cl)cc1` [indomethacin]: the “inhibition of HBV DNA production (plasma)” value in series [2] is “did not inhibit”.

In series [3], CpG ODN 2006 had a GM-CSF induction of 0 pg/mL, an IFNγ induction of 7 pg/mL, an IL-1β induction of 1 pg/mL and an IL-6 induction of 241 pg/mL. Also, in series [3], the IL-8 induction is given as 2,436 pg/mL, the IL-10 induction was determined as 374 pg/mL, the IL-12p70 induction came out at 4 pg/mL and the TNFα induction worked out at 51 pg/mL.

With Poly(I:C), in series [3], the GM-CSF induction is given as 0 pg/mL, the IFNγ induction stood at 103 pg/mL, the IL-1β induction is reported as 22 pg/mL and the IL-6 induction amounted to 129 pg/mL. In series [3], the IL-8 induction was 1,452 pg/mL, the IL-10 induction came to 8 pg/mL, the IL-12p70 induction was determined as 18 pg/mL and the TNFα induction was determined as 208 pg/mL.
